Assay results from PubChem BioAssay (NCI).
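Cultured in 96-well plates, cells were exposed to test compound for 48 hours across five concentrations. GI50: concentration for 50% inhibition of growth. The concentration for full growth arrest is given as TGI.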

Key:
Assay in all cases: inhibition of tumour cell growth, NCI panel, 48 h
SK-MEL-2 melanoma = system: SK-MEL-2 melanoma
MCF7 breast = system: MCF7 breast
OVCAR-8 ovarian = system: OVCAR-8 ovarian
SK-MEL-5 melanoma = system: SK-MEL-5 melanoma
HOP-92 NSCLC = system: HOP-92 NSCLC
NCI-H226 lung = system: NCI-H226 lung
ACHN renal = system: ACHN renal
786-0 renal = system: 786-0 renal
DMS 273 small cell lung = system: DMS 273 small cell lung
SNB-78 CNS = system: SNB-78 CNS

Row | SMILES | GI50 (SK-MEL-2 melanoma) [µM] | TGI (SK-MEL-2 melanoma) [µM] | GI50 (MCF7 breast) [µM] | TGI (MCF7 breast) [µM] | GI50 (OVCAR-8 ovarian) [µM] | TGI (OVCAR-8 ovarian) [µM] | GI50 (SK-MEL-5 melanoma) [µM] | TGI (SK-MEL-5 melanoma) [µM] | GI50 (HOP-92 NSCLC) [µM] | TGI (HOP-92 NSCLC) [µM] | GI50 (NCI-H226 lung) [µM] | TGI (NCI-H226 lung) [µM] | GI50 (ACHN renal) [µM] | TGI (ACHN renal) [µM] | GI50 (786-0 renal) [µM] | TGI (786-0 renal) [µM] | TGI (DMS 273 small cell lung) [µM] | TGI (SNB-78 CNS) [µM]
1 | Clc1ccc2[nH]cc(-c3nnnn3-c3ccccc3)c2c1 | > 64.9 | > 100 | 29.8 | > 100 | 29.5 | > 93.3 | 9.97 | 28.8 | 27.5 | > 100 | 74 | > 100 | 24.9 | > 100 | 29.6 | > 100 | – | –
2 | CC[C@H]1[C@@H]2C=C[C@@H]3[C@H]4C/C=C\C(=O)NCCC[C@@H]5NC(=O)/C(=C(O)/C=C/[C@@H]4C[C@@H]3[C@H]2C[C@H]1C)C5=O | 2.54 | 6.01 | 1.75 | 3.88 | 0.333 | 1.37 | 0.9 | 2.2 | 1.41 | 2.82 | 0.738 | 2.56 | 0.42 | 1.57 | 0.44 | 1.59 | – | –
3 | Cn1cc(C2=C(c3cn(CCCCO)c4ccccc34)C(=O)NC2=O)c2ccccc21 | 7.65 | 21.6 | 4.45 | > 25 | 8.61 | 24.8 | 6.26 | > 20.5 | 17.1 | > 25 | 7.55 | > 25 | 6.38 | > 23.4 | 8.81 | > 25 | – | –
4 | Cc1[nH]c2ccccc2c1C(=O)/C=C/c1ccccc1O | – | > 100 | – | – | – | > 100 | – | > 100 | – | – | – | – | – | > 100 | – | > 100 | > 100 | –
5 | O=C(CCc1n[nH]c(=S)o1)Nc1ccccc1C(F)(F)F | – | – | – | – | – | > 100 | – | > 100 | – | > 100 | – | > 100 | – | > 100 | – | > 100 | > 100 | > 100
6 | CCOC(=O)Nc1ccc(-c2nc(-c3cccc(OCCN4CCOCC4)c3)c(-c3ccnc(Br)c3)[nH]2)cc1 | 2.41 | 6.07 | 1.62 | 4.27 | 3.73 | > 100 | 1.74 | 3.15 | 2.77 | 7.79 | 3.18 | > 100 | 3.06 | > 100 | 1.6 | 4.12 | – | –
7 | COc1cccc(C2=NC(C(C)C)CO2)c1 (stereo unspecified) | – | > 100 | – | – | – | > 100 | – | > 100 | – | – | – | > 100 | – | > 100 | – | > 100 | > 100 | > 100
8 | CS(=O)(=O)CCNCc1nc(-c2ccc3ncnc(Nc4ccc(OCc5cccc(C(F)(F)F)c5)cc4)c3c2)cs1 | 8.7 | > 22.1 | > 17.5 | > 25 | 11.1 | > 25 | > 21.6 | > 25 | 3.68 | 15.8 | > 25 | > 25 | > 21.9 | > 25 | > 16.5 | > 25 | – | –
9 | COc1ccc(/C=C2/N=C(c3ccccc3)N(c3c(C)n(C)n(-c4ccccc4)c3=O)C2=O)cc1OC | > 100 | > 100 | 70.5 | > 100 | > 100 | > 100 | 51.7 | > 100 | > 100 | > 100 | > 100 | > 100 | > 100 | > 100 | > 100 | > 100 | – | –
10 | CC12CP(=O)(c3ccccc3)CC1C2(Cl)Cl (stereo unspecified) | – | – | – | – | – | > 100 | – | > 100 | – | – | – | – | – | – | – | > 100 | > 100 | > 100
11 | Cc1ncc(C(=O)Nc2ccc(CN3CCN(C)CC3)c(C(F)(F)F)c2)cc1C#Cc1cnc(N)c2ccncc12 | 1.72 | 3.65 | 1.35 | 2.9 | 1.69 | 6.55 | 1.6 | 2.98 | 0.615 | 3.62 | 0.527 | 14.3 | 0.303 | 1.5 | 1.35 | 3.3 | – | –
12 | CN1C(=O)N(C)C2C1NN=c1s/c(=C\c3ccc(Cl)cc3Cl)c(=O)n12 (stereo unspecified) | 11.7 | > 100 | 0.045 | > 48.3 | 0.399 | > 100 | 0.167 | 1.78 | 0.406 | 79.4 | 0.623 | > 100 | 0.236 | > 100 | 0.703 | > 48.8 | – | –
13 | COc1cccc2c1C(=O)c1c(O)c3c(c(O)c1C2=O)C[C@](O)(C(=O)CO)C[C@H]3O[C@@H]1C[C@@H](NC(=O)CCCCCN(C)C2(c3ccc(F)cc3)CC3CCC2C3)[C@H](O)[C@@H](C)O1 (stereo partly specified) | 1.18 | 2.52 | 0.966 | 2.7 | 1.18 | 3.94 | 7.65 | 15.6 | 5.36 | 12.5 | 6.68 | 16.9 | 1.75 | 6.66 | 0.82 | 1.61 | – | –
14 | O=C1C=CC(=O)c2cc3cc(CBr)ccc3cc21 | 33.3 | > 83.5 | 9.73 | > 100 | 5.88 | > 77.3 | 14.9 | 36 | 3.18 | 9.93 | 27.4 | 71.2 | 1.82 | 3.71 | 2.28 | 5.24 | – | –
15 | C1CN2CCN3CCN4CCN1[P+]243 | – | > 100 | – | – | – | > 100 | – | > 100 | – | – | – | > 100 | – | > 100 | – | > 100 | > 100 | > 100
16 | COC(=O)C(Cc1nc2ccc(Cl)cc2[nH]c1=O)/C(=N\N)C(=O)Nc1cc(C)c(Cl)cc1S(=O)(=O)O (stereo unspecified) | – | > 100 | – | – | – | > 100 | – | > 100 | – | > 100 | – | > 100 | – | > 100 | – | > 100 | – | > 100
17 | CCOc1ccc(NC(=O)CC#N)cc1 | – | > 100 | – | – | – | > 100 | – | > 100 | – | – | – | > 100 | – | > 100 | – | > 100 | > 100 | > 100
